Laboratory results from paper PMC3997483, “Aminostyrylbenzofuran Directly Reduces Oligomeric Amyloid-β and Reverses Cognitive Deficits in Alzheimer Transgenic Mice” (PLoS ONE, 2014).

Test system: SD rats
Assay: 2-week repeated oral dose toxicity study
Format: in vivo
Details: for Abnormal gross findings of necropsy (changed animals / total) / Basophils / Body Weight (at necropsy) / Brain weight / CH / CHCM / Eosinophils / HDW / Heart weight / Hematocrit / Hemoglobin / LUC / Left adrenal weight / Left kidney weight / Left testis weight / Liver weight / Lung weight / Lympocytes / MCH / MCHC / MCV / MPV / Monocytes / Mortality (dead animals / total number of animals) / Neutrophils / Platelet / RBC / RDW / Rate body weight / brain / Rate body weight / heart / Rate body weight / left adrenal / Rate body weight / left kidney / Rate body weight / left testis / Rate body weight / liver / Rate body weight / lung / Rate body weight / right adrenal / Rate body weight / right kidney / Rate body weight / right testis / Rate body weight / spleen / Rate body weight / thymus / Retic / Right adrenal weight / Right kidney weight / Right testis weight / Spleen weight / Symptomatic signs / Thymus weight / WBC: 2 weeks
Experimental: KMS88009 was orally administered once a day by gavage for 14 consecutive days at dose level of 0 (vehicle), 100, 300 and 1,000 mg/kg (n = 5 per group). […] Organs were collected at necropsy; adrenal, kidney, thymus, spleen, heart, lung, liver, testis and brain. The absolute organ weights were measured and the organs-to-body weight ratios were calculated. Blood samples for hematological evaluation were collected from vein of animals under ether anesthesia. Food was withheld overnight before necropsy and blood collections. EDTA was used as an anticoagulant for hematology samples. White blood cell (WBC), red blood cell (RBC), hemoglobin concentration (HGB), hematocrit (HCT), mean corpuscular volume (MCV), mean corpuscular hemoglobin (MCH), mean corpuscular hemoglobin concentration (MCHC), cell hemoglobin concentration mean (CHCM), cell hemoglobin (CH), red cell distribution width (RDW), hemoglobin distribution width (HDW), platelet count (PLT), mean platelet volume (MPV) and reticulocyte were measured by a hematological autoanalyzer (ADVIA 120, Bayer, USA). To get the serum for biochemical analyses, blood samples in a separation tube were centrifuged at 4,000 rpm for 10 min on the day of necropsy. The serum was kept frozen at -70°C until analysis. Sodium citrate was used as an anticoagulant for biochemical analyses. Serum biochemical parameters including aspartate aminotransferase (AST), alanine aminotransferase (ALT), alkaline phosphatase (ALP), total bilirubin (T-Bil), albumin, total protein (TP), albumin/globulin ratio (A/G ratio), glucose, total cholesterol (CHO), triglyceride (TG), lactate dehydrogenase (LDH), creatine kinase (CK), blood urea nitrogen (BUN), creatinine (CRE), blood urea nitrogen/creatinine ratio (B/C ratio), Na^+, K^+ and Cl^- were evaluated by an autoanalyzer (Shimadzu CL-7200, Shimadzu Co., Japan).
All data for single and 2-week repeated oral dose toxicity studies were expressed as the mean ± SD Difference between control and treated groups were evaluated with one-way analysis of variance (ANOVA) followed by Dunnett's test. Value P<0.05 was taken as being statistically significant. Statistical analyses were performed using GraphPad Prism software (USA).

With `COc1ccc2cc(C=Cc3ccc(N(C)C)cc3)oc2c1` [KMS88009, 6-methoxy-2-(4-dimethylaminostyryl) benzofuran] the no-observed-adverse-effect-level (SD rats, 2-week repeated oral administration) was “over 1,000 mg/kg”, the “Abnormal gross findings of necropsy (changed animals / total)” value (rats PO 100 mg/kg/day) was 0 / 5 and the Basophils (rats PO 100 mg/kg/day) was 0.02 ± 0.01 x10^3/μL. The “Body Weight (at necropsy)” value (rats PO 100 mg/kg/day) was 316.188 ± 16.093 g, the Brain weight (rats PO 100 mg/kg/day) was 1.948 ± 0.032 g and the CH (rats PO 100 mg/kg/day) was 20.3 ± 0.4 pg. The CHCM (rats PO 100 mg/kg/day) was 34.0 ± 0.4 g/dL, the Eosinophils (rats PO 100 mg/kg/day) was 0.07 ± 0.08 x10^3/μL and the HDW (rats PO 100 mg/kg/day) was 2.22 ± 0.08 g/dL. It also gave a Heart weight (rats PO 100 mg/kg/day) of 1.067 ± 0.098 g, a Hematocrit (rats PO 100 mg/kg/day) of 43.2 ± 2.6% and a Hemoglobin (rats PO 100 mg/kg/day) of 14.3 ± 1.0 g/dL. For the same compound, the LUC (rats PO 100 mg/kg/day) was 0.03 ± 0.02 x10^3/μL, the Left adrenal weight (rats PO 100 mg/kg/day) was 0.027 ± 0.005 g and the Left kidney weight (rats PO 100 mg/kg/day) was 1.279 ± 0.083 g. For the same compound, the Left testis weight (rats PO 100 mg/kg/day) was 1.440 ± 0.114 g, the Liver weight (rats PO 100 mg/kg/day) was 10.988 ± 0.881 g and the Lung weight (rats PO 100 mg/kg/day) was 1.212 ± 0.077 g. The Lympocytes (rats PO 100 mg/kg/day) was 6.64 ± 1.79 x10^3/μL, the MCH (rats PO 100 mg/kg/day) was 19.8 ± 0.5 pg and the MCHC (rats PO 100 mg/kg/day) was 33.1 ± 0.5 g/dL. The MCV (rats PO 100 mg/kg/day) was 59.7 ± 1.3 fL, the MPV (rats PO 100 mg/kg/day) was 7.66 ± 0.2 fL and the Monocytes (rats PO 100 mg/kg/day) was 0.12 ± 0.03 x10^3/μL. For the same compound, the “Mortality (dead animals / total number of animals)” value (rats PO 100 mg/kg/day) was 0 / 5, the Neutrophils (rats PO 100 mg/kg/day) was 1.74 ± 0.68 x10^3/μL and the Platelet (rats PO 100 mg/kg/day) was 1283 ± 239 x10^3/μL. The RBC (rats PO 100 mg/kg/day) was 7.25 ± 0.46 x10^6/μL, the RDW (rats PO 100 mg/kg/day) was 12.0 ± 0.3% and the “Rate body weight / brain” value (rats PO 100 mg/kg/day) was 0.617 ± 0.026%. The “Rate body weight / heart” value (rats PO 100 mg/kg/day) was 0.337 ± 0.024%, the “Rate body weight / left adrenal” value (rats PO 100 mg/kg/day) was 0.009 ± 0.002% and the “Rate body weight / left kidney” value (rats PO 100 mg/kg/day) was 0.404 ± 0.009%. The “Rate body weight / left testis” value (rats PO 100 mg/kg/day) was 0.456 ± 0.036%, the “Rate body weight / liver” value (rats PO 100 mg/kg/day) was 3.473 ± 0.154% and the “Rate body weight / lung” value (rats PO 100 mg/kg/day) was 0.384 ± 0.031%. The “Rate body weight / right adrenal” value (rats PO 100 mg/kg/day) was 0.008 ± 0.001%, the “Rate body weight / right kidney” value (rats PO 100 mg/kg/day) was 0.414 ± 0.026% and the “Rate body weight / right testis” value (rats PO 100 mg/kg/day) was 0.459 ± 0.042%. The “Rate body weight / spleen” value (rats PO 100 mg/kg/day) was 0.230 ± 0.048%, the “Rate body weight / thymus” value (rats PO 100 mg/kg/day) was 0.205 ± 0.022% and the Retic (rats PO 100 mg/kg/day) was 324.8 ± 18.9 ^* x10^3/μL. The Right adrenal weight (rats PO 100 mg/kg/day) was 0.025 ± 0.002 g, the Right kidney weight (rats PO 100 mg/kg/day) was 1.310 ± 0.101 g and the Right testis weight (rats PO 100 mg/kg/day) was 1.450 ± 0.133 g. The Spleen weight (rats PO 100 mg/kg/day) was 0.731 ± 0.188 g, the Symptomatic signs (rats PO 100 mg/kg/day) was “-” and the Thymus weight (rats PO 100 mg/kg/day) was 0.649 ± 0.073 g. For the same compound, the WBC (rats PO 100 mg/kg/day) was 8.62 ± 1.70 x10^3/μL, the Body weight (rats PO 100 mg/kg/day, day 1) was 227.6 ± 7.8 g and the Body weight (rats PO 100 mg/kg/day, day 4) was 253.1 ± 7.0 g. The Body weight (rats PO 100 mg/kg/day, day 8) was 297.2 ± 9.3 g, the Body weight (rats PO 100 mg/kg/day, day 11) was 321.2 ± 13.1 g and the Body weight (rats PO 100 mg/kg/day, day 14) was 344.4 ± 17.1 g. For the same compound, the “Abnormal gross findings of necropsy (changed animals / total)” value (rats PO 300 mg/kg/day) was 0 / 5, the Basophils (rats PO 300 mg/kg/day) was 0.01 ± 0.01 x10^3/μL and the “Body Weight (at necropsy)” value (rats PO 300 mg/kg/day) was 312.382 ± 14.169 g. It also gave a Brain weight (rats PO 300 mg/kg/day) of 1.680 ± 0.211 g, a CH (rats PO 300 mg/kg/day) of 20.4 ± 0.7 pg and a CHCM (rats PO 300 mg/kg/day) of 34.2 ± 0.3 g/dL. The Eosinophils (rats PO 300 mg/kg/day) was 0.03 ± 0.01 x10^3/μL, the HDW (rats PO 300 mg/kg/day) was 2.28 ± 0.12 g/dL and the Heart weight (rats PO 300 mg/kg/day) was 1.002 ± 0.038 g. The Hematocrit (rats PO 300 mg/kg/day) was 41.4 ± 1.9%, the Hemoglobin (rats PO 300 mg/kg/day) was 13.9 ± 0.7 g/dL and the LUC (rats PO 300 mg/kg/day) was 0.02 ± 0.01 x10^3/μL. It also gave a Left adrenal weight (rats PO 300 mg/kg/day) of 0.026 ± 0.004 g, a Left kidney weight (rats PO 300 mg/kg/day) of 1.237 ± 0.082 g and a Left testis weight (rats PO 300 mg/kg/day) of 1.515 ± 0.189 g. The Liver weight (rats PO 300 mg/kg/day) was 10.601 ± 0.687 g, the Lung weight (rats PO 300 mg/kg/day) was 1.214 ± 0.128 g and the Lympocytes (rats PO 300 mg/kg/day) was 3.98 ± 0.96 x10^3/μL. It also gave an MCH (rats PO 300 mg/kg/day) of 20.0 ± 0.6 pg, an MCHC (rats PO 300 mg/kg/day) of 33.4 ± 0.4 g/dL and an MCV (rats PO 300 mg/kg/day) of 59.7 ± 1.5 fL. For the same compound, the MPV (rats PO 300 mg/kg/day) was 7.84 ± 0.4 fL, the Monocytes (rats PO 300 mg/kg/day) was 0.08 ± 0.02 x10^3/μL and the “Mortality (dead animals / total number of animals)” value (rats PO 300 mg/kg/day) was 0 / 5. For the same compound, the Neutrophils (rats PO 300 mg/kg/day) was 0.84 ± 0.21 x10^3/μL, the Platelet (rats PO 300 mg/kg/day) was 1309 ± 50 x10^3/μL and the RBC (rats PO 300 mg/kg/day) was 6.93 ± 0.26 x10^6/μL. For the same compound, the RDW (rats PO 300 mg/kg/day) was 11.9 ± 0.4%, the “Rate body weight / brain” value (rats PO 300 mg/kg/day) was 0.537 ± 0.059% and the “Rate body weight / heart” value (rats PO 300 mg/kg/day) was 0.321 ± 0.011%. The “Rate body weight / left adrenal” value (rats PO 300 mg/kg/day) was 0.008 ± 0.001%, the “Rate body weight / left kidney” value (rats PO 300 mg/kg/day) was 0.396 ± 0.020% and the “Rate body weight / left testis” value (rats PO 300 mg/kg/day) was 0.487 ± 0.075%. For the same compound, the “Rate body weight / liver” value (rats PO 300 mg/kg/day) was 3.393 ± 0.133%, the “Rate body weight / lung” value (rats PO 300 mg/kg/day) was 0.389 ± 0.037% and the “Rate body weight / right adrenal” value (rats PO 300 mg/kg/day) was 0.008 ± 0.001%. For the same compound, the “Rate body weight / right kidney” value (rats PO 300 mg/kg/day) was 0.406 ± 0.008%, the “Rate body weight / right testis” value (rats PO 300 mg/kg/day) was 0.455 ± 0.023% and the “Rate body weight / spleen” value (rats PO 300 mg/kg/day) was 0.201 ± 0.037%. For the same compound, the “Rate body weight / thymus” value (rats PO 300 mg/kg/day) was 0.196 ± 0.036%, the Retic (rats PO 300 mg/kg/day) was 277.8 ± 39.6 x10^3/μL and the Right adrenal weight (rats PO 300 mg/kg/day) was 0.025 ± 0.004 g. For the same compound, the Right kidney weight (rats PO 300 mg/kg/day) was 1.266 ± 0.035 g, the Right testis weight (rats PO 300 mg/kg/day) was 1.420 ± 0.086 g and the Spleen weight (rats PO 300 mg/kg/day) was 0.629 ± 0.130 g. For the same compound, the Symptomatic signs (rats PO 300 mg/kg/day) was “-”, the Thymus weight (rats PO 300 mg/kg/day) was 0.613 ± 0.115 g and the WBC (rats PO 300 mg/kg/day) was 4.95 ± 1.05 x10^3/μL. The Body weight (rats PO 300 mg/kg/day, day 1) was 227.8 ± 7.1 g, the Body weight (rats PO 300 mg/kg/day, day 4) was 250.5 ± 9.9 g and the Body weight (rats PO 300 mg/kg/day, day 8) was 294.2 ± 14.6 g.
